IC50 and DC50 data for eight molecules are collected here from patent US20260167623A1 (NIKANG THERAPEUTICS, INC., priority 2022, published 2026).

Experiment [1] concerns the target T1, CDK2 (Homo sapiens, UniProt P24941).
T1 construct: High-Throughput Measurement of Cellular Endogenous CDK2; endogenous in cells; host or cells: OVCAR3
Nature of the experiment: Inhibition of CDK2: phospho-Rb (S807/811) HTRF measurement in OVCAR3 cells, 24 h. The note with it: 24 h compound treatment, read-out: pRB_OVCAR3_24h. Format: cell-based. The essentials: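 IC50 came from a four-parameter fit of DMSO-normalized TR-FRET ratios (665/620 nm) reporting phospho-Rb S807/811. Lysates were taken from OVCAR3 cultures treated 24 h with compound (0.3 to 10,000 nM) and incubated 4 h at room temperature with the antibody pair.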

The target of experiment [2] is T1, CDK2. Put plainly: High-throughput HTRF measurement of cellular endogenous CDK2 level (degradation, DC50/Dmax) in OVCAR3 cells, 6 h. The note with it: 6 h compound treatment, HTRF total CDK2, read-out: DC50_OVCAR3_6h. It counts as cell-based. The essentials:
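DC50 and Dmax were derived by four-parameter logistic fit of the […] TR-FRET ratio, scaled between DMSO (0% degradation) and lysis buffer (100%) controls. The ratio came from an HTRF total-CDK2 sandwich immunoassay on lysates of OVCAR3 cells given 0.03–1,000 nM compound for 6 hours.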
(In general: Time-resolved FRET reads energy transfer from a long-lived donor to a nearby acceptor.)

With `Cn1nc(N2CCC(=O)NC2=O)c2ccc(C3CCN(CCc4cccc(S(=O)(=O)N5CCC(Nc6ncc(C(F)(F)F)cn6)CC5)c4)CC3)cc21` [Example 6, 1-(1-methyl-6-(1-(3-((4-((5-(trifluoromethyl)pyrimidin-2-yl)amino)-piperidin-1-yl)sulfonyl)phenethyl)piperidin-4-yl)-1H-indazol-3-yl)dihydropyrimidine-2,4(1H,3H)-dione], the IC50 on CDK2 [1] was in the range of 1 to 100 nM. The DC50 on CDK2 [2] lay in the range of 100 to 1000 nM.

On to `O=C1CCN(c2noc3cc(C4CCN(CC5CCN(c6cccc(S(=O)(=O)N7CCC(Nc8ncc(Cl)cn8)CC7)c6)CC5)CC4)ccc23)C(=O)N1` [Example 221, 1-(6-(1-((1-(3-((4-((5-chloropyrimidin-2-yl)amino)piperidin-1-yl)sulfonyl)phenyl)piperidin-4-yl)methyl)piperidin-4-yl)benzo[d]isoxazol-3-yl)dihydropyrimidine-2,4(1H,3H)-dione], for which the IC50 at CDK2 [1] lay within 1 to 100 nM. For the same molecule, the DC50 on CDK2 [2] was in the range of 1 to 10 nM.

Turning to `Cn1nc(N2CCC(=O)NC2=O)c2ccc(C3CCN(Cc4cccc(S(=O)(=O)N5CCC(Nc6ncc(OC(F)F)cn6)CC5)c4)CC3)cc21` [Example 35, 1-(6-(1-(3-((4-((5-(difluoromethoxy)-pyrimidin-2-yl)amino)piperidin-1-yl)sulfonyl)benzyl)piperidin-4-yl)-1-methyl-1H-indazol-3-yl)dihydropyrimidine-2,4(1H,3H)-dione], the IC50 at CDK2 [1] was 1 to 100 nM. For the same molecule, the DC50 on CDK2 [2] fell in the range of 10 to 100 nM.

As for `Cn1nc(N2CCC(=O)NC2=O)c2ccc(C3CCN(CC4CCN(c5cccc(S(=O)(=O)N6CCC(Nc7ncc(C(F)(F)F)cn7)CC6)c5)CC4)CC3)c(Cl)c21` [Example 89, 1-(7-chloro-1-methyl-6-(1-((1-(3-((4-((5-(trifluoromethyl)pyrimidin-2-yl)amino)-piperidin-1-yl)sulfonyl)phenyl)piperidin-4-yl)methyl)piperidin-4-yl)-1H-indazol-3-yl)dihydropyrimidine-2,4(1H,3H)-dione], the IC50 on CDK2 [1] was in the range of 1 to 100 nM. Also, on CDK2 [2], the DC50 lay within 10 to 100 nM.

As to `Cn1nc(N2CCC(=S)NC2=O)c2ccc(C3CCN(CC4CCN(c5cccc(S(=O)(=O)N6CCC(Nc7ncc(Cl)cn7)CC6)c5)CC4)CC3)cc21` [Example 239, 1-(6-(1-((1-(3-((4-((5-chloropyrimidin-2-yl)amino)piperidin-1-yl)sulfonyl)phenyl)piperidin-4-yl)methyl)piperidin-4-yl)-1-methyl-1H-indazol-3-yl)-4-thioxotetrahydropyrimidin-2(1H)-one], on CDK2 [1], the IC50 lay within 100 to 500 nM. The DC50 at CDK2 [2] was in the range of 10 to 100 nM.

On to `Cn1nc(N2CCC(=O)NC2=O)c2ccc(C3CCN(CC4CCN(c5cc(S(=O)(=O)N6CCC(Nc7ncc(C(F)(F)F)cn7)CC6)ccc5C#N)CC4)CC3)cc21` [Example 152, 2-(4-((4-(3-(2,4-dioxotetrahydropyrimidin-1(2H)-yl)-1-methyl-1H-indazol-6-yl)piperidin-1-yl)methyl)piperidin-1-yl)-4-((4-((5-(trifluoromethyl)pyrimidin-2-yl)amino)piperidin-1-yl)sulfonyl)benzonitrile], for which the IC50 on CDK2 [1] fell in the range of 1 to 100 nM. Further, the DC50 on CDK2 [2] fell in the range of 1 to 10 nM.

As for `Cn1nc(N2CCC(=O)NC2=O)c2ccc(C3CCN(Cc4cccc(S(=O)(=O)N5CCC(Nc6ncc(Cl)cn6)CC5)c4)CC3)cc21` [Example 11, 1-(6-(1-(3-((4-((5-chloropyrimidin-2-yl)amino)piperidin-1-yl)sulfonyl)benzyl)-piperidin-4-yl)-1-methyl-1H-indazol-3-yl)dihydropyrimidine-2,4(1H,3H)-dione], the IC50 on CDK2 [1] lay within 100 to 500 nM. Besides, at CDK2 [2], the DC50 fell in the range of 1 to 10 nM.

Take `Cn1nc(-n2ccc(=O)[nH]c2=O)c2ccc(C3CCN(CC4CCN(c5cccc(S(=O)(=O)N6CCC(Nc7ncc(C(F)(F)F)cn7)CC6)c5)CC4)CC3)cc21` [Example 211, 1-(1-methyl-6-(1-((1-(3-((4-((5-(trifluoromethyl)pyrimidin-2-yl)amino)piperidin-1-yl)sulfonyl)phenyl)piperidin-4-yl)methyl)piperidin-4-yl)-1H-indazol-3-yl)pyrimidine-2,4(1H,3H)-dione]: the IC50 on CDK2 [1] is 1 to 100 nM. Besides, the DC50 on CDK2 [2] lay within 1000 to 5000 nM.
